Earlier results, collected in patent US9555029B2 (HIKMA PHARMACEUTICALS, priority 2013, dated 2017).

Tests used:
P-gp = P-gp (Homo sapiens, UniProt P08183); conditions: FDA definition; cited from earlier work
CYP3A4 = CYP3A4 (Homo sapiens, UniProt P08684); conditions: FDA definition of relative strength; cited from earlier work
Sequence of CYP3A4 (P08684 whole entry): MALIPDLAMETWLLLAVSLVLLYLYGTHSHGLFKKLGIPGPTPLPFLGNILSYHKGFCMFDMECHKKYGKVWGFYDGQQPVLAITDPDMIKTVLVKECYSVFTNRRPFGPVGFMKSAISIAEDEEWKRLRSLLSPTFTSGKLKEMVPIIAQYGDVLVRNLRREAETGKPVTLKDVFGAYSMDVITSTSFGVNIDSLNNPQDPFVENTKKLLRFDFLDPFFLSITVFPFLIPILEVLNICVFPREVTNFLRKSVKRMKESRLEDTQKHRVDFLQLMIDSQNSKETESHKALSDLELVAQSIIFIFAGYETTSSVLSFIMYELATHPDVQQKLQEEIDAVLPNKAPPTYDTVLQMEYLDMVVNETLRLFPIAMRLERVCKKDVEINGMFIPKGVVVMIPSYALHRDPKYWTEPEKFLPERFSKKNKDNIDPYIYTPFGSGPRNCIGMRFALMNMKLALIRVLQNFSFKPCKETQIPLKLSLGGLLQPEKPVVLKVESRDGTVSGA

Sequence of P-gp (P08183 whole entry): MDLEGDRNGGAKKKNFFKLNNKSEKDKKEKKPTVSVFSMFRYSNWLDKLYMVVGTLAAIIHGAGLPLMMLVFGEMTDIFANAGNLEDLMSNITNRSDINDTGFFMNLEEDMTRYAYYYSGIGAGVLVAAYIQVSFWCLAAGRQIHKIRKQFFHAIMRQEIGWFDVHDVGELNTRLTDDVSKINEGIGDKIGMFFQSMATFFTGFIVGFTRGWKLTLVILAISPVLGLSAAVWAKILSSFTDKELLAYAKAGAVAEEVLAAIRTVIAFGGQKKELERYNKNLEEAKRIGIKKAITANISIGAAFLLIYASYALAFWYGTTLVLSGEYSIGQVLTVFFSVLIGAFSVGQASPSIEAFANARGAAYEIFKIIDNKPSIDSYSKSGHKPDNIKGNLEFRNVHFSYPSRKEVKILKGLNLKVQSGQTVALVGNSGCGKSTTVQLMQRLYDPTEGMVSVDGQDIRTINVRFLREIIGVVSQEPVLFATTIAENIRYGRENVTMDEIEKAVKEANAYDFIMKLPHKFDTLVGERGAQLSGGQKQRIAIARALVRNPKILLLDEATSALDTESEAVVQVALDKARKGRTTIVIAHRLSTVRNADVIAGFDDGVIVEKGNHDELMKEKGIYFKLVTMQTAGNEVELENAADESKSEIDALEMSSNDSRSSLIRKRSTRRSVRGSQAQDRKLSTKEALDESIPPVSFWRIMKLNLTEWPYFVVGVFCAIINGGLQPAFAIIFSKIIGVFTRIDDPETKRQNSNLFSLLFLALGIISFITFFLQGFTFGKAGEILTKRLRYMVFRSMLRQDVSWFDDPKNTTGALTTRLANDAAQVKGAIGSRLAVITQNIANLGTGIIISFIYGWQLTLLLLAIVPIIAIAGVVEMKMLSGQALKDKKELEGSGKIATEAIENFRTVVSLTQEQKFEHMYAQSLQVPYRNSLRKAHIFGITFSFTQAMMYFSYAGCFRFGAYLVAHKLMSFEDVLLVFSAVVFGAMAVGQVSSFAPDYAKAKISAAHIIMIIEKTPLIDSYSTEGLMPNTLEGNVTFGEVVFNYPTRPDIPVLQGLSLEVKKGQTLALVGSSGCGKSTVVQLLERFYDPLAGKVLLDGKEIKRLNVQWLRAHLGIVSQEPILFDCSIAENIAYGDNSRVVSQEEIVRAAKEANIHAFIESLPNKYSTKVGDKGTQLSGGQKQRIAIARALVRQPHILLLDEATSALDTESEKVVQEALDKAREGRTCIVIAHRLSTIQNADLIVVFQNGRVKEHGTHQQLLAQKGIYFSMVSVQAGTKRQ

| SMILES | Inhibitor of P-gp (P-gp) | Strength as inhibitor of CYP3A4 (CYP3A4) |
| --- | --- | --- |
| C[C@@H](c1ncncc1F)[C@](O)(Cn1cncn1)c1ccc(F)cc1F [Voriconazole, (2R,3S)-2-(2,4-difluorophenyl)-3-(5-fluoropyrimidin-4-yl)-1-(1H-1,2,4-triazol-1-yl)butan-2-ol] | not an inhibitor |  |
| CN/C(=N/CCSCc1nc[nH]c1C)NC#N [Cimetidine, 2-cyano-1-methyl-3-(2-[(5-methyl-1H-imidazol-4-yl)methylthio]ethyl)guanidine] | not an inhibitor |  |
| OC(Cn1cncn1)(Cn1cncn1)c1ccc(F)cc1F [Fluconazole, 2-(2,4-difluorophenyl)-1,3-bis(1H-1,2,4-triazol-1-yl)propan-2-ol] | not an inhibitor | moderate (“Moderate inhibitors” cause ≧2-fold but <5-fold (i.e., 100-399%) increase in AUC) |
